The record followed here is patent US20230405078A1, “DETECTION AND TREATMENT OF INTESTINAL FIBROSIS” (THE REGENTS OF THE UNIVERSITY OF CALIFORNIA, priority 2020, published 2023).

One data set deals with TNBS-treated mice. The experiment in a line: TNBS-associated colonic fibrosis in mice. In kind it is in vivo. As for the experimental part:
Eight-week-old male and female CD-1 mice (#022, Charles River Laboratories) were injected with 50pL TNBS solution (to induce colonic fibrosis) or 30% ethanol (vehicle) via enema weekly for five weeks. After the last TNBS injection, the mice were held for two additional weeks to develop colonic fibrosis. Some of the mice were injected with 5 μg/mouse of either control (PS100001) or elafin-expressing construct (RC203136) from
Origene via InvivoJetPEI transfection reagent (201-10G, Polyplus) intracolonically on the 9th day after the last TNBS injection or five days before the end of experiment.
Some of the mice received either a single intraperitoneal injection of 10 mg/kg anti-tumor necrosis factor-alpha (anti-TNFα) neutralizing antibody (6E0058, BioXCell) or oral antibiotic mixture in drinking water ad libitum from the 9th day after the last TNBS injection to the endpoint of the experiment. The antibiotics mixture contains kanamycin (0.4 mg/mL), gentamicin (0.035 mg/mL), colistin (850 U/mL), metronidazole (0.215 mg/mL), and vancomycin (0.045 mg/mL), which was routinely used by our laboratory for suppressing intestinal microbiota.
For PAR1/2 activation, some of the mice were injected with DMSO (50pL/mouse), 5 mg/kg PAR1 agonist TRAP-6, or 5 mg/kg PAR2 agonist SLIGKV-NH2 via enema on the 9th, 11th, and 13th days after the last TNBS injection.
For miRNA inhibition, some of the mice were injected with 5 mg/kg either control inhibitor or miR205-5p power inhibitor (Qiagen) […] via enema on the 9th, 11th, and 13th days after the last TNBS injection.
For Zeb1 manipulation, some mice received a single intraperitoneal injection (10^7 infectious units/mouse) of control lentivirus (PS100064V), Zeb1-overexpressing lentivirus (MR223095L2V), or Zeb1-shRNA lentivirus (TL513177V) from Origene, Inc. nine days after the last TNBS injection.
Dr. Xingguo Cheng produced the oral elafin-Eudragit-FS3OD formulation via a material transfer agreement (UCLA MTA2019-00000337) with the Southwest Research Institute (SWRI) in Texas. […] The mice were fed with either control-Eudragit or elafin-Eudragit in mildly acidified (pH 5) water containing 0.5% hydroxypropyl methylcellulose (HPMC) daily via oral gavage during the last five days of the experiment.
H&E and Masson Trichrome (MT) staining were performed as described previously. Microphotographs were recorded at multiple locations and scored by two investigators blindly. Intestinal injuries were scored (0-12). The severity of intestinal fibrosis was assessed by MT staining and scored (0-3). ZEB1 immunohistochemistry was performed using an anti-ZEB1 antibody (HPA027524, Sigma).
Total RNA was isolated by an RNeasy kit (#74104, Qiagen) and reverse transcribed into cDNA by a high-capacity cDNA reverse transcription kit (#4368813, ThermoFisher). PCR reactions were run with Taq Universal SYBR Green Supermix (1725120, Bio-Rad) and TaqMan real-time PCR assays (ThermoFisher) in a Bio-Rad CFX384 system. For the determination of miRNA expression, RNA was converted to cDNA using miRCURY LNA RT kit. PCR reactions were run with miRCURY LNA SYBR Green PCR kit and miRCURY LNA PCR assays (Qiagen). Relative mRNA/miRNA quantification was performed by comparing test groups and control groups after normalization with endogenous control genes. The fold changes are expressed as […]. […]
Overall disease activity (ODA) was calculated by % change of histology and fibrosis scores and colonic mRNA expression of fibrosis- and inflammation-related genes. […]

Data set [1] has as its system Human colonic CCD-18Co fibroblasts. Kind of data set: TGF-β1-induced fibrogenesis in CCD-18Co fibroblasts. In kind it is cell-based. As for the experimental part:
Cleveland Clinic IRB directives (IRB #17-1167). Primary non-IBD patient-derived colonic fibroblasts (H6231) were purchased from Cell Biologics. All primary colonic fibroblasts were cultured in fibroblast medium (M2267, Cell Biologics). Human colonic CCD-18Co fibroblasts (ATCC) were cultured in minimal essential medium Eagle's medium (MEM) containing 10% fetal bovine serum and 1% penicillin-streptomycin 6, 20. All fibroblasts were grown to 80% confluence and then switched to serum-free media overnight for experiments.
For activation of protease-activated receptors (PARs), fibroblasts were pretreated with 0.8% DMSO, 10 μM PAR1 agonist TRAP-6 (HY-P0078, MCE), 10 μM PAR2 agonist SLIGKV-NH2 (Protease-Activated Receptor-2, amide, HY-P0283, MCE), or 0.4 μg/ml PAR2-activating protease recombinant cathepsin S (1183-CY-010, R&D Systems) for 30 minutes. For miR205-5p activation, fibroblasts were transfected with (30 picomoles/well) either control (YM00479902) or miR205-5p miRCURY LNA mimic (YM00472340) from Qiagen via Lipofectamine 3000 transfection reagent (L3000001, ThermoFisher) in Opti-MEM (#31985062, ThermoFisher) overnight. For miR205-5p inhibition, fibroblasts were pretreated with 50nM either control (Y100199006) or miR205-5p power inhibitors (Y104101508-DDA) from Qiagen overnight. For overexpression of zinc finger E-box homeobox 1 (ZEB1), fibroblasts were infected with […] infectious units/plate either control (PS100064V) or human ZEB1-overexpressing lentivirus (RC217704L1V) from Origene, Inc. overnight.
The fibroblasts were pretreated with either 0.1% TFA (vehicle), 10 ng/ml transforming growth factor-beta 1 (TGF-p1), or 100 μg/ml serum exosomes from stricturing CD (CDSE) patients for two hours to induce fibrogenesis, followed by incubation with elafin (AS-61641, Anaspec) for 2-24 hours. Serum exosomes from CD patients were used to mimic the chemical environment of CD [12]. At the end of the experiments, the cells were lysed with either RLT buffer for RNA experiments or radioimmunoprecipitation assay (RIPA) buffer for ProCOL1A1 (DY6220-05, R&D Systems), COL1A2 (MBS2701496, MyBioSource), ZEB1 (MBS774017, MyBioSource), or phosphorylated ERK1/2 (DYC1018B, R&D Systems) ELISAs.

Entries after “also recorded” stand apart in the source; their conditions may differ. Where no end group is shown, it is not given here.

As to “Elafin: small (6 kDa) human elastase-specific protease inhibitor and antimicrobial peptide; active form SEQ ID NO: 2 (AQEPVKGPVSTKPGSCPIILIRCAMLNPPNRCLKDTDCPGIKKCCEGSCGMACFVPQ; listed as Homo sapiens)”, the overall disease activity with TNBS-treated mice (TNBS models) is listed as 7-11%. In addition, the “TGF-β1 induced COL1A2 and ProCOL1A1 protein expression” value in data set [1] (CCD-18Co, ELISA of cell lysates) is given as “reversed”. The “TGF-β1-induced COL1A2 (collagen) mRNA expression” value in data set [1] (TGF-β1 10 ng/ml, elafin (0.1-10 micrograms/ml) added two hours later, 24 hours) is “significantly reduced; also recorded: reversed”. The “ZEB1 mRNA and protein expression” value in data set [1] (TGF-β1-/CD serum-exosome-treated human colonic fibroblasts) was “decreased; also recorded: diminished”. Also, the miR205-5p expression result in data set [1] (TGF-β1-treated CCD-18Co fibroblasts) is on record as “increased”; in data set [1] (TGF-β1-treated CCD-18Co fibroblasts, listed as elafin), “significantly increased”.
For the substance “SLIGKV-NH2 [PAR2 agonist, reference compound]”, in the data set on TNBS-treated mice (TNBS-treated mice), the “colonic injury and fibrosis” value is on record as “did not affect”; the “colonic miR205-5p expression” value is given as “diminished”. Besides, in the data set with TNBS-treated mice (TNBS-treated mice with intracolonic elafin overexpression), the “effect on elafin-mediated inhibition of colonic injury, fibrosis and fibrogenic gene expression” value was “reversed”. The “effect on elafin-mediated miR205-5p induction and ZEB1 inhibition” value in data set [1] (TGF-β1-treated CCD-18Co fibroblasts, agonist 10 μM) is “reversed”. In data set [1] (TGF-β1-treated CCD-18Co fibroblasts, elafin 1 μg/ml), the “effect on elafin-mediated inhibition of collagen expression” value is on record as “reversed”.
